Structures are written as SMILES. Where a name gives a salt, the structure may show the parent alone.

The values below come from the supplement of paper PMC12137928.

The subject of the assay is HCT116. To be noted: 72 h. The gist of the method: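 Luminescence was read with CellTiter-Glo in HCT116 cells seeded at 250 per well in 1536-well plates. Signals were scaled between vehicle at 0% and positive control at -100%, then pattern-corrected. IC50 and maximal efficacy were obtained by fitting a four-parameter Hill equation.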

On to `CC(CCc1ccc(O)cc1)NCC(O)c1ccc(O)cc1` (configuration not stated) [RACTOPAMINE HYDROCHLORIDE], for which the IC50 cell viability by setting is: (ICRF193 0 nM) greater than 45.8 µM; (ICRF193 200 nM) greater than 45.8 µM.

In the case of `C[C@@H]1O[C@@H](OC[C@H]2O[C@@H](Oc3c(-c4ccc(O)c(O)c4)oc4cc(O)cc(O)c4c3=O)[C@H](O)[C@@H](O)[C@@H]2O)[C@H](O)[C@H](O)[C@H]1O` [Rutin trihydrate], the IC50 cell viability runs as follows: (ICRF193 0 nM) greater than 45.8 µM; (ICRF193 200 nM) greater than 45.8 µM.

`C=C[C@H]1CN2CC[C@H]1C[C@H]2[C@H](O)c1ccnc2ccccc12` [CINCHONIDINE] displayed an IC50 cell viability (ICRF193 0 nM) greater than 45.8 µM and an IC50 cell viability (ICRF193 200 nM) greater than 45.8 µM.

On to `COc1ccc(OC)c(C(O)C(C)N)c1` (configuration not stated) [Methoxamine hydrochloride], for which the IC50 cell viability was greater than 45.8 µM (ICRF193 0 nM) and greater than 45.8 µM (ICRF193 200 nM).

The compound `O=C(O)[C@@H](O)[C@H](O)[C@H](O)[C@@H](O)C(=O)O` [Mucic acid] displayed an IC50 cell viability (ICRF193 0 nM) greater than 45.8 µM and an IC50 cell viability (ICRF193 200 nM) greater than 45.8 µM.

For the compound `O=C(Cn1cnnn1)N[C@@H]1C(=O)N2C(C(=O)O)=C(CSc3nncs3)CS[C@H]12` [Ceftezole sodium], the IC50 cell viability reads like this: (ICRF193 0 nM) greater than 45.8 µM; (ICRF193 200 nM) greater than 45.8 µM.

With `NCCCC[C@H](N[C@@H](CCc1ccccc1)C(=O)O)C(=O)N1CCC[C@H]1C(=O)O` [Lisinopril dihydrate], the IC50 cell viability reads like this: (ICRF193 0 nM) greater than 45.8 µM; (ICRF193 200 nM) greater than 45.8 µM.

With `CN[C@@H]1[C@@H](O)[C@@H](O[C@@H]2[C@@H](O)[C@H](O[C@H]3O[C@H](CN)[C@@H](O)[C@H](O)[C@H]3O)[C@@H](N)C[C@H]2NC(=O)[C@@H](O)CN)OC[C@]1(C)O` [Isepamicin], the IC50 cell viability by setting is: (ICRF193 0 nM) greater than 45.8 µM; (ICRF193 200 nM) greater than 45.8 µM.

Take `CN[C@H]1C(=O)N[C@@H]2Cc3ccc(cc3)Oc3cc4cc(c3O[C@@H]3O[C@H](C(=O)O)[C@@H](O)[C@H](O)[C@H]3NC(=O)CCCCCCCCC(C)C)Oc3ccc(cc3Cl)[C@@H](O)[C@@H]3NC(=O)[C@H](NC(=O)[C@@H]4NC(=O)[C@@H](NC2=O)c2cc(cc(O)c2Cl)Oc2cc1ccc2O)c1ccc(O)c(c1)-c1c(O[C@H]2O[C@H](CO)[C@@H](O)[C@H](O)[C@@H]2O)cc(O)cc1[C@@H](C(=O)NCCCN(C)C)NC3=O` [Dalbavancin]: the IC50 cell viability is greater than 45.8 µM (ICRF193 0 nM) and greater than 45.8 µM (ICRF193 200 nM).

Regarding `CN[C@@H]1[C@H](O)[C@H](NC)[C@H]2O[C@@]3(O)C(=O)C[C@@H](C)O[C@H]3O[C@@H]2[C@H]1O` [Spectinomycin dihydrochloride], the IC50 cell viability is greater than 45.8 µM (ICRF193 0 nM) and greater than 45.8 µM (ICRF193 200 nM).

Turning to `c1ccc2[nH]ccc2c1` [Indole], the IC50 cell viability reads like this: (ICRF193 0 nM) greater than 45.8 µM; (ICRF193 200 nM) greater than 45.8 µM.

For the compound `CCCCCCCCCCCCCCCCC(C(=O)O)C(O)(CC(=O)O)C(=O)O` (configuration not stated) [Agaric acid], the IC50 cell viability by setting is: (ICRF193 0 nM) greater than 45.8 µM; (ICRF193 200 nM) greater than 45.8 µM.

Compound `O=C(OCC(COC(=O)c1cccnc1)(COC(=O)c1cccnc1)COC(=O)c1cccnc1)c1cccnc1` [Niceritrol] had an IC50 cell viability (ICRF193 0 nM) greater than 45.8 µM and an IC50 cell viability (ICRF193 200 nM) greater than 45.8 µM.

In turn, `NC(=O)c1ccc([N+](=O)[O-])cc1Cl` [2-Chloro-4-nitrobenzamide] returned an IC50 cell viability (ICRF193 0 nM) greater than 45.8 µM and an IC50 cell viability (ICRF193 200 nM) greater than 45.8 µM.

For `CC(Oc1c(Cl)cccc1Cl)C1=NCCN1` (configuration not stated) [Lofexidine], the IC50 cell viability is greater than 45.8 µM (ICRF193 0 nM) and greater than 45.8 µM (ICRF193 200 nM).

With `Cc1nc2n(c(=O)c1CCN1CCC(c3noc4cc(F)ccc34)CC1)CCCC2O` (configuration not stated) [Paliperidone], the IC50 cell viability is, setting by setting: (ICRF193 0 nM) greater than 45.8 µM; (ICRF193 200 nM) greater than 45.8 µM.

As to `CN1C(C(=O)Nc2ccccn2)=C(O)c2sccc2S1(=O)=O` [Tenoxicam], the IC50 cell viability is, setting by setting: (ICRF193 0 nM) greater than 45.8 µM; (ICRF193 200 nM) greater than 45.8 µM.

With `CS(=O)(=O)OC[C@H](O)[C@@H](O)COS(C)(=O)=O` [Treosulfan], the IC50 cell viability is greater than 45.8 µM (ICRF193 0 nM) and greater than 45.8 µM (ICRF193 200 nM).

For `CCCCNc1ccc(C(=O)OCCN(CC)CC)cc1` [Depolipon], the IC50 cell viability by setting is: (ICRF193 0 nM) greater than 45.8 µM; (ICRF193 200 nM) greater than 45.8 µM.

For `CN1C2CCCC1CC(NC(=O)c1nn(C)c3ccccc13)C2` (configuration not stated) [Granisetron (AB-1001)], the IC50 cell viability runs as follows: (ICRF193 0 nM) greater than 45.8 µM; (ICRF193 200 nM) greater than 45.8 µM.

As to `Nc1c2c(nc3ccccc13)CCCC2` [Tacrine hydrochloride], the IC50 cell viability by setting is: (ICRF193 0 nM) greater than 45.8 µM; (ICRF193 200 nM) greater than 45.8 µM.

With `CCC(=O)O[C@]1(C(=O)COC(C)=O)CC[C@H]2[C@@H]3C[C@H](C)C4=CC(=O)C=C[C@]4(C)[C@H]3[C@@H](O)C[C@@]21C` [Methylprednisolone aceponate], the IC50 cell viability by setting is: (ICRF193 0 nM) greater than 45.8 µM; (ICRF193 200 nM) greater than 45.8 µM.

`O=C(C1CCCCC1)N1CC(=O)N2CCc3ccccc3C2C1` (configuration not stated) [Praziquantel] registered an IC50 cell viability (ICRF193 0 nM) greater than 45.8 µM and an IC50 cell viability (ICRF193 200 nM) greater than 45.8 µM.

Turning to `Nc1ccc(S(=O)(=O)Nc2nccs2)cc1` [Sulfathiazole], the IC50 cell viability was greater than 45.8 µM (ICRF193 0 nM) and greater than 45.8 µM (ICRF193 200 nM).

Consider `CCC(=O)O[C@H]1CC[C@H]2[C@@H]3CCC4=CC(=O)CC[C@]4(C)[C@H]3CC[C@]12C` [Testosterone propionate], for which the IC50 cell viability is greater than 45.8 µM (ICRF193 0 nM) and greater than 45.8 µM (ICRF193 200 nM).

In the case of `OCCOCCN1CCN(C2=Nc3ccccc3Sc3ccccc32)CC1` [Quetiapine], the IC50 cell viability was greater than 45.8 µM (ICRF193 0 nM) and greater than 45.8 µM (ICRF193 200 nM).
